Assays:
[1] = EEG protocol (Method JJ), spontaneous EEG in behaving rats; type: in vivo, Sprague Dawley rats
Excerpt: In another embodiment, certain compounds of the invention may be useful in treating schizophrenia. In a particular embodiment, certain compounds of the invention may be useful in treating cognitive disorders associated with schizophrenia. The existing non-selective GABAergic agents are generally not suitable for treating information/cognitive processing deficits in schizophrenia due to the unacceptable competing side effects, such as overt sedation and memory impairment. Certain compounds of the invention are capable of selective modification of function at the specific GABAergic synapses affected by the schizophrenic disease state. Therefore, these certain compounds of the invention acting selectively at GABAA α2 subunits may be used for treating cognitive deficits in schizophrenia.
Subjects: Sprague Dawley rats weighing 300-400 g at time of surgery are used as subjects. Rats are maintained>1 week in AstraZeneca vivarium prior to surgical procedures. Rats are housed singly, maintained on a 12:12 light:dark cycle, and fed and watered ad lib for a period of>14 days following surgery. […]
During compound testing sessions, animals are initially allowed to re-acclimate to the operant chamber for 10-20′ minutes prior to a 30-minute baseline session in which performance and EEG are continuously monitored. […]

[2] = molecular target: T1, GABAA receptor α2β3γ2 (Homo sapiens, UniProt P18507+P47869); experiment: Two-electrode voltage-clamp potentiation of GABA EC10 current in Xenopus oocytes, GABAA2; type: cell-based; conditions: percentage potentiation of GABA EC10 current divided by that of diazepam
T1 construct: expressed in transfected cells; host or cells: Xenopus laevis oocytes injected with cRNA
T1 sequence (P47869 29-451): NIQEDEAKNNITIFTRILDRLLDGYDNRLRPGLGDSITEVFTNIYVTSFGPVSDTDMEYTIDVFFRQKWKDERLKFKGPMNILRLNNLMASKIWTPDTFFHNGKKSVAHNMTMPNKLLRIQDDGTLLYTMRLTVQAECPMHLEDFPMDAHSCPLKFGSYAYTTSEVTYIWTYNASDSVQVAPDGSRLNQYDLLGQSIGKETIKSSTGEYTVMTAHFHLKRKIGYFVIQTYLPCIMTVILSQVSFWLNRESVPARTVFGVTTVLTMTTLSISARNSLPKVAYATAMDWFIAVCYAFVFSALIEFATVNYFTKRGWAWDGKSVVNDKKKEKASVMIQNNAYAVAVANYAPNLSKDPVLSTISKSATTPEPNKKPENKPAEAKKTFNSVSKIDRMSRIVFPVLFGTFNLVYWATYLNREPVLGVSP
T1 sequence (P28472 26-473 partner): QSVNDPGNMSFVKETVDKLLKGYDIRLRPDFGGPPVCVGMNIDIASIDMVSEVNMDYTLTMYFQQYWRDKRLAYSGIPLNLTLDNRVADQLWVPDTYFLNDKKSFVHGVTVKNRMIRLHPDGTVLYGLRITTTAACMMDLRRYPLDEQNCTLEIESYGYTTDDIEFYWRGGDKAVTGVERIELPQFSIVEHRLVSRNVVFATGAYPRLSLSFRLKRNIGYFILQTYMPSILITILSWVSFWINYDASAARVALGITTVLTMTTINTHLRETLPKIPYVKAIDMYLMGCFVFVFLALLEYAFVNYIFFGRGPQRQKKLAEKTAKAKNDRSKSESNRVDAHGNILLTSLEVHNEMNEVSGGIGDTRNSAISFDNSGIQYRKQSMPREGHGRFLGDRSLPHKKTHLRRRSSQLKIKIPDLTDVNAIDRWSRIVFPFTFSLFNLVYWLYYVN
T1 sequence (P18507 40-475): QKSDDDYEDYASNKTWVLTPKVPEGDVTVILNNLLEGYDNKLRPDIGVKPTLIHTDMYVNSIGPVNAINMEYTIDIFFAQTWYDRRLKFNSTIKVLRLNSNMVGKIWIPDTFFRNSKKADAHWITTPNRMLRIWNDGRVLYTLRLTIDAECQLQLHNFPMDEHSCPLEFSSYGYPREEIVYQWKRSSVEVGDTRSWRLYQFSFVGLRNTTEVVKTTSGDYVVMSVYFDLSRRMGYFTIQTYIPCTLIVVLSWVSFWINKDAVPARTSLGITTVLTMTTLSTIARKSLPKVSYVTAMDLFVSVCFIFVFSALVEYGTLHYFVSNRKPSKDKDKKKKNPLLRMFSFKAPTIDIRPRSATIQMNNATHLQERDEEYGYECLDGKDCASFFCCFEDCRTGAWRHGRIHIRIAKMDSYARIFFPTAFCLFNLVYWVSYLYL
How it was run: (§1)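 Human GABAA receptors expressed in Xenopus oocytes by cRNA injection (α:β:γ molar ratio ~1:1:10 for α1β2γ2, 1:1:1 for α2β3γ2), recorded 2-10 days later by two-electrode voltage clamp at −60 mV in ND-96, pH 7.5. Modulator preapplied 30 s before GABA at per-oocyte EC10. Peak-current percent potentiation over GABA alone, normalised to diazepam.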

[3] = molecular target: T2, GABAA2 receptors (α2, β3, γ2 receptor subunits transfected into Sf9 cells) (Homo sapiens, UniProt P18507+P47869); experiment: GABAA2 Binding Method ([3H]-Flunitrazepam displacement); conditions: [3H]-Flunitrazepam ~2 nM, α2β3γ2 Sf9 membranes, 1 hr at 4° C.
T2 construct: host or cells: Sf9 cells (membranes)
T2 sequence (P47869 29-451): as the sequence (P47869 29-451) above
T2 sequence (P28472 26-473 partner): as the sequence (P28472 26-473 partner) above
T2 sequence (P18507 40-475): as the sequence (P18507 40-475) above
How it was run: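 Displacement of [3H]-flunitrazepam (~2 nM in assay) from recombinant human α2β3γ2 receptors in Sf9 membranes; 1 h incubation at 4 °C, harvest by filtration. Values reported as percent of control, IC50 and Ki.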

[4] = molecular target: T3, GABAA receptor α1β2γ2 (Homo sapiens, UniProt P14867+P18507); experiment: Two-electrode voltage-clamp potentiation of GABA EC10 current in Xenopus oocytes, GABAA1; type: cell-based; conditions: percentage potentiation of GABA EC10 current divided by that of diazepam
T3 construct: expressed in transfected cells; host or cells: Xenopus laevis oocytes injected with cRNA
T3 sequence (P14867 28-456): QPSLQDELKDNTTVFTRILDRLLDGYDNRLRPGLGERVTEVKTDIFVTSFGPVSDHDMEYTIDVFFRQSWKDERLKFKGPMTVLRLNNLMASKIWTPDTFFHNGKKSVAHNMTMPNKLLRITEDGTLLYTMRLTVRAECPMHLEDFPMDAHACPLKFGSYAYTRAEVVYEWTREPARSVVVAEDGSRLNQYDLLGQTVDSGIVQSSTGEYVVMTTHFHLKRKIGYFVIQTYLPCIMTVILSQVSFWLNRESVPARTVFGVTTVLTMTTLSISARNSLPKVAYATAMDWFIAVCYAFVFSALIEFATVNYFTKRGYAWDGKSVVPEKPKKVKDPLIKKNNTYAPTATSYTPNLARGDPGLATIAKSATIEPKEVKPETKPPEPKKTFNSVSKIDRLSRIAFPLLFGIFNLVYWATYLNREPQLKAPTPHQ
T3 sequence (P47870 25-512 partner limits assumed): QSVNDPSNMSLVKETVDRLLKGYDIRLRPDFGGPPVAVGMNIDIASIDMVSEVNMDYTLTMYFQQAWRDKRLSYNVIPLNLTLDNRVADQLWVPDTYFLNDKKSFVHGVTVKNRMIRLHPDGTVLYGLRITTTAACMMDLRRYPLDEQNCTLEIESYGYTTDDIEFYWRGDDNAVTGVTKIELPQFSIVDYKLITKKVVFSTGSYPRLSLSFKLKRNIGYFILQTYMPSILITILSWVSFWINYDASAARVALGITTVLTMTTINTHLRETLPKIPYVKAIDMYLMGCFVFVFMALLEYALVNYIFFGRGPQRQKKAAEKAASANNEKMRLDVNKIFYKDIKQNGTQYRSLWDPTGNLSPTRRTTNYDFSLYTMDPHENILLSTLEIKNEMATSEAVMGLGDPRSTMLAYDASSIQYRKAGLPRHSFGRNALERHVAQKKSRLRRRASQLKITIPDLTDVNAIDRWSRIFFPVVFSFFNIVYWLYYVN
T3 sequence (P18507 40-475): as the sequence (P18507 40-475) above
How it was run: as §1

Row | SMILES | spontaneous EEG at gamma frequencies [1] | spontaneous EEG across a range of oscillation frequencies [1] | Relative Potentiation for GABAA2 [2] | Ki [3] | Relative Potentiation for GABAA1 [4]
1 | Cc1ccc(-c2nc3ccc(C)cn3c2CC(=O)N(C)C)cc1 [zolpidem] | no significant increase |  |  |  | 
2 | O=C1Nc2ccc(Cl)cc2C(c2ccccc2Cl)=NC1O (centres unmarked) [Lorazepam] |  | broad changes |  |  | 
3 | COc1cccc(F)c1-c1cccc2c(N)c3c(nc12)CN(C1CC(C)C1)C3=O (centres unmarked) [9-Amino-5-(2-fluoro-6-methoxyphenyl)-2-(3-methylcyclobutyl)-2,3-dihydropyrrolo[3,4-b]quinolin-1-one] |  |  | 0.36 | 3.75 nM | 0.11
4 | COc1ccc(F)cc1-c1cccc2c(N)c3c(nc12)CN(C1CCC1)C3=O [9-Amino-2-cyclobutyl-5-(5-fluoro-2-methoxyphenyl)-2,3-dihydropyrrolo[3,4-b]quinolin-1-one] |  |  | 0.36 | 8.9 nM | 0.066
5 | CCCN1Cc2nc3c(-c4cccnc4OC)cccc3c(N)c2C1=O [9-amino-5-(2-methoxypyridin-3-yl)-2-propyl-2,3-dihydro-1H-pyrrolo[3,4-b]quinolin-1-one] |  |  | 0.58 | 42.1 nM | 0.36
6 | COc1cccc(F)c1-c1cccc2c(N)c3c(nc12)CN(C)C3=O [Example 20, 9-Amino-5-(2-fluoro-6-methoxyphenyl)-2-methyl-2,3-dihydropyrrolo[3,4-b]quinolin-1-one] |  |  | 0.26 | 18.8 nM | 0.046
7 | COc1ccc(CN2Cc3nc4c(-c5ccc(Cl)nc5)cccc4c(N)c3C2=O)cc1OC [Example 8, 9-Amino-5-(6-chloropyridin-3-yl)-2-(3,4-dimethoxybenzyl)-2,3-dihydropyrrolo[3,4-b]quinolin-1-one] |  |  | 0.07 | 45.9 nM | 0.013
8 | Cc1ccc(-c2cccc3c(N)c4c(nc23)CN(C2CCC2)C4=O)nc1 [9-Amino-2-cyclobutyl-5-(5-methylpyridin-2-yl)-2,3-dihydropyrrolo[3,4-b]quinolin-1-one] |  |  | 0.13 | 12.7 nM | 0.088
9 | COc1ccc(F)c(-c2cccc3c(N)c4c(nc23)CN(C2CCC2)C4=O)c1 [9-Amino-2-cyclobutyl-5-(2-fluoro-5-methoxyphenyl)-2,3-dihydropyrrolo[3,4-b]quinolin-1-one] |  |  | 0.29 | 1.34 nM | 0.1
10 | CCCN1Cc2nc3c(-c4cc(F)ccc4OC)cccc3c(N)c2C1=O [9-amino-5-(5-fluoro-2-methoxyphenyl)-2-propyl-2,3-dihydro-1H-pyrrolo[3,4-b]quinolin-1-one] |  |  | 0.25 | 80.3 nM | 0.19
11 | N#Cc1cncc(-c2cccc3c(N)c4c(nc23)CN(C2CCC2)C4=O)c1 [5-(9-Amino-2-cyclobutyl-1-oxo-2,3-dihydro-1H-pyrrolo[3,4-b]quinolin-5-yl)-nicotinonitrile] |  |  | 0.21 | 5.85 nM | 0.048
12 | COc1ncc(-c2c(F)ccc3c(N)c4c(nc23)CN(C2CCC2)C4=O)c(OC)n1 [9-Amino-2-cyclobutyl-5-(2,4-dimethoxypyrimidin-5-yl)-6-fluoro-2,3-dihydropyrrolo[3,4-b]quinolin-1-one] |  |  | 0.4 | 0.953 nM | 0.11
13 | Cc1nn(C)cc1-c1c(F)ccc2c(N)c3c(nc12)CN([C@@H]1CCOC1)C3=O [Example 97, 9-Amino-5-(1,3-dimethyl-1H-pyrazol-4-yl)-6-fluoro-2-(R)-tetrahydrofuran-3-yl-2,3-dihydropyrrolo[3,4-b]quinolin-1-one] |  |  | 0.35 | 10.4 nM | 0.15
14 | COc1ncccc1-c1c(F)ccc2c(N)c3c(nc12)CN(C1CC1)C3=O [Example 38, 9-Amino-2-cyclopropyl-6-fluoro-5-(2-methoxypyridin-3-yl)-2,3-dihydropyrrolo[3,4-b]quinolin-1-one] |  |  | 0.26 | 2.59 nM | 0.11
15 | CCCN1Cc2nc3c(-c4cc(C)ccc4C)cccc3c(N)c2C1=O [9-amino-5-(2,5-dimethylphenyl)-2-propyl-2,3-dihydro-1H-pyrrolo[3,4-b]quinolin-1-one] |  |  | 0.2 | 56.8 nM | 0.22
16 | CCN1Cc2nc3c(-c4ccc(OC)c(OC)c4)c(F)ccc3c(N)c2C1=O [Example 47, 9-Amino-5-(3,4-dimethoxyphenyl)-2-ethyl-6-fluoro-2,3-dihydropyrrolo[3,4-b]quinolin-1-one] |  |  | 0.27 | 4.52 nM | 0.068
17 | Nc1c2c(nc3c(-c4ccccc4F)cccc13)CN(C1CC1)C2=O [9-Amino-2-cyclopropyl-5-(2-fluorophenyl)-2,3-dihydropyrrolo[3,4-b]quinolin-1-one] |  |  | 0.16 | 18.3 nM | −0.024
18 | C=Cc1ccccc1-c1c(F)ccc2c(N)c3c(nc12)CN(C1CCC1)C3=O [9-Amino-2-cyclobutyl-6-fluoro-5-(2-vinylphenyl)-2,3-dihydropyrrolo[3,4-b]quinolin-1-one] |  |  | 0.11 | 1.68 nM | 0.11
19 | CCCN1Cc2nc3c(-c4c(F)cccc4F)cccc3c(N)c2C1=O [Example 56, 9-Amino-5-(2,6-difluorophenyl)-2-propyl-2,3-dihydro-pyrrolo[3,4-b]quinolin-1-one] |  |  | 0.24 | 4.98 nM | 0.083
20 | COc1ccc(-c2c(F)ccc3c(N)c4c(nc23)CN(C2CCC2)C4=O)cn1 [9-Amino-2-cyclobutyl-6-fluoro-5-(6-methoxypyridin-3-yl)-2,3-dihydropyrrolo[3,4-b]quinolin-1-one] |  |  | 0.19 | 2.63 nM | −0.04
21 | CCN1Cc2nc3c(-c4cc(F)ccc4OC)cccc3c(N)c2C1=O [9-Amino-2-ethyl-5-(5-fluoro-2-methoxyphenyl)-2,3-dihydropyrrolo[3,4-b]quinolin-1-one] |  |  | 0.17 | 27.4 nM | 0.054
22 | COc1ccc(-c2cccc3c(N)c4c(nc23)CN(C2CCC2)C4=O)c(C)n1 [9-Amino-2-cyclobutyl-5-(6-methoxy-2-methylpyridin-3-yl)-2,3-dihydropyrrolo[3,4-b]quinolin-1-one] |  |  | 0.2 | 5.03 nM | −0.0033
23 | CCCN1Cc2nc3c(-c4ccc(C)nc4F)cccc3c(N)c2C1=O [9-amino-5-(2-fluoro-6-methylpyridin-3-yl)-2-propyl-2,3-dihydro-1H-pyrrolo[3,4-b]quinolin-1-one] |  |  | 0.37 | 19.7 nM | 0.22
